Biological target: 5-hydroxytryptamine receptor 1A (Sus scrofa)
Assay: Displacement of [3H]8-OH-DPAT from 5HT1A receptor in porcine cortical membrane

Ki: 3.6 µM
Structure (SMILES): Fc1ccc(N2CCN(Cc3cn4ccccc4n3)CC2)cc1 [2-[4-(4-fluorophenyl)piperazin-1-ylmethyl]imidazo[1,2-a]pyridine]

Reference: BindingDB's records for doi:10.1021/jm060166w (University of Tours, 2006)
